Legend:
cyanovirin-N (CVN) = target: T1, cyanovirin-N (CVN) (Nostoc ellipsosporum, UniProt P81180); assay: High-mannose oligosaccharide microarray incubated with BODIPY-labeled CVN, fluorescence scan; assay type: binding, Nostoc elliposporum; conditions: for BODIPY-labeled CVN fluorescence (binding) on immobilized saccharide spots: BODIPY-CVN 25 μg mL-1, 1 hour, room temperature, BSA coated slide; for CVN spot fluorescence intensity relative to nonamannoside (normalized to background): higher printed concentrations 1 mM-0.5 mM (FIG. 9)
T1 sequence (P81180 1-101): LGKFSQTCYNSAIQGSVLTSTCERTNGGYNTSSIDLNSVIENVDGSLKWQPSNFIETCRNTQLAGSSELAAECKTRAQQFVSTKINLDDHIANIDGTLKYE
Method: Using the aforementioned thiol terminated linker, a series of high-mannose oligosaccharides were prepared (Scheme 6). Arrays were printed on a BSA coated slide, as above, varying the concentration of printed oligosaccharide, and blocked with 3-mercaptoproprionic acid.
It was of interest to establish whether the microarray platform may serve to probe relative affinities of CVN for the different high-mannose structures. A microarray containing the four oligosaccharide structures was prepared with carbohydrate concentrations ranging from 0.008 mM to 2 mM. […] At lower dilutions, however, this trend is reversed. This discrepancy from the isocalorimetry data can be explained by the density of covalently immobilized saccharide at saturating concentrations. We hypothesize that the size of the nonasaccharide, compared to the other structures immobilized, might sterically occlude reactive sites leading to decreased amounts of immobilized structure. As previously observed, two distinct CVN binding domains can each interact with a single α1,2-linked linear trimannoside. We reason that a higher surface concentrations of 3 permits this multivalent interaction to take place.
Functionalization of slides: SuperAldehyde slides (TeleChem International) were immersed in 50 mL phosphate buffered saline (PBS) containing 1% bovine serum albumin (BSA; w/v) and incubated overnight at room temperature. The slides were rinsed twice with distilled H2O (100 mL), twice with 95% ethanol (50 mL) and then dried under a stream of dry Ar. Thereafter the slides were immersed in 45 mL of anhydrous DMF (Aldrich) containing 65 mg succinimidyl-4-(Nmaleimidomethyl)cyclohexane-1-carboxyiate. (Pierce Chemical) and 100 mM N,N-Diisopropylethylamine (Aldrich). The slides were incubated in this solution for 24 hours at room temperature, washed 4 times with 95% ethanol (50 mL) and then stored in a vacuum dessicator until used for microarray fabrication.
Microarray fabrication: Thiol functionalized carbohydrates were incubated 1 hr at room temperature with 1 equivalent tris-(carboxyethyl)phosphine hydrochloride (TCEP) in 1×PBS, and printed on the maleimide derivitized glass slides using a MicroGrid TAS array printer. Prints were performed at 30% humidity using either a 16-pin or 32-pin format, with a spot size of 120 μm and a distance of 300 μm between the centers of adjacent spots. Thereafter, the slides were stored in a humid chamber at room temperature for 12 hours, washed 2 times with distilled H2O, and then incubated for 1 hour in 1 mM 3-mercaptopropionic acid in PBS (50 mL) to quench all remaining maleimide groups. The slides were washed three times with distilled H2O (50 mL), two times with 95% ethanol (50 mL) and then stored in a vacuum dessicator until used for binding experiments.
Detection of protein-carbohydrate interactions: In experiments involving FITC labeled ConA (Sigma), the lectin was used at 25 μg mL^−1 in 10 mM HEPES-BSA buffer (pH 7.5, 1 mM CaCl2, 1 mM MnCl2, 100 mM NaCl, 1% (w/v) BSA). In experiments involving BODIPY-labeled CVN, the CVN was used at 25 μg mL-1 in 10 mM PBS containing 1% BSA. For all incubations, 0.55 mL of protein solution was applied to the slide using a PC500 CoverWell incubation chamber (Grace BioLabs). Following a 1 hour incubation at room temperature, the slides were washed three times with 50 mL of the same buffer used in the incubation, twice with 50 mL distilled H2O and then centrifuged at 200 g for 5 minutes to ensure complete dryness. To visualize fluorescence, the slides were scanned using an ArrayWoRx fluorescence slide scanner (Applied Precision).

cyanovirin N (CV-N) = cyanovirin N (CV-N) (Nostoc ellipsosporum, UniProt P81180); assay: Fiber optic microsphere array incubated with BODIPY-labeled CV-N; assay type: binding; conditions: CV-N 50 μg mL^−1, five minutes; excitation 488 nm
Excerpt: Five synthetic carbohydrates (1,3-6) were immobilized on microspheres carrying a unique internal code for each structure. A small aliquot of each of the five dispersions was mixed together and used to microsphere array.
At five minutes the CV-N solution was removed and replaced with a fresh buffer solution. BODIPY excitation wavelength (488 nm) was passed through the optical fiber and BODIPY emission wavelengths were collected on the CCD camera. Three of the five structures (3,5,6) present were bound by CV-N in accordance with isothermal microcalorimetry studies P. H. Seeberger et al. Chemistry and Biology 2002, 9, 1109.

CVN = target: T2, CVN (Nostoc ellipsosporum, UniProt P81180); conditions: recent isothermocalorimetry and NMR study; read-out: Kd of CVN binding; cited from earlier work
T2 sequence (P81180 1-101): T1 sequence (P81180 1-101)

Concanavalin A (ConA) [1] = target: T3, Concanavalin A (ConA) (Canavalia ensiformis, UniProt P02866); assay: Carbohydrate microarray incubated with FITC-labeled ConA, fluorescence scan; assay type: binding; conditions: FITC-ConA 25 μg mL^−1, 1 hour, room temperature; 120 μm spots on maleimide-BSA slide
Excerpt: Protein-carbohydrate interactions were examined using the mannose/glucose specific lectin Concanavalin A (ConA). Microarrays were constructed through the maleimide derivatization of BSA coated glass slides to create a thiol-reactive surface (FIG. 1). Thiol derivatized mannose and galactose were printed as 120 μm spots using a microarray printing robot. The remaining maleimide groups were subsequently quenched with a solution of 3-mercaptopropionic acid to render the slides unreactive to cysteine containing proteins. The carbohydrate microarrays were incubated with a solution of FITC-labeled ConA. The arrays were thoroughly rinsed with buffer, dried by centrifugation and scanned with a fluorescence slide scanner. […] Utilizing proteins conjugated to fluorophores of non-overlapping excitation and-emission spectra enabled facile two-color detection. […] See Bidlingmaier, S.; Synder, M. Chemistry and Biology 2002, 9, 400. […]
Detection of protein-carbohydrate interactions: In experiments involving FITC labeled ConA (Sigma), the lectin was used at 25 μg mL^−1 in 10 mM HEPES-BSA buffer (pH 7.5, 1 mM CaCl2, 1 mM MnCl2, 100 mM NaCl, 1% (w/v) BSA). […] To visualize fluorescence, the slides were scanned using an ArrayWoRx fluorescence slide scanner (Applied Precision).

Concanavalin A (ConA) [2] = target: T3, Concanavalin A (ConA)
HIV strains = conditions: natural and recombinant forms of CVN; cited from earlier work
host cells = conditions: natural and recombinant forms of CVN; cited from earlier work

In the case of linear trimannoside [compound 3], the “BODIPY-labeled CVN fluorescence (binding) on immobilized saccharide spots” value (“BODIPY-labeled CVN fluorescence” below) (cyanovirin-N (CVN)) is reported as “fluorescence was detected”, the “CVN spot fluorescence intensity relative to nonamannoside (normalized to background)” value (cyanovirin-N (CVN)) is reported as “higher fluorescence intensities than the nonamannoside” and the “BODIPY-labeled CV-N binding to oligosaccharide-bearing beads” value (“BODIPY-labeled CV-N binding” for short) (cyanovirin N (CV-N)) is reported as “bound by CV-N”. For the same molecule, the Kd (CVN) was 3480 nM.

With hexamannoside [compound 5] the “BODIPY-labeled CVN fluorescence” value (cyanovirin-N (CVN)) was “fluorescence was detected”, the “CVN spot fluorescence intensity relative to nonamannoside (normalized to background)” value (cyanovirin-N (CVN)) was “higher fluorescence intensities than the nonamannoside” and the “BODIPY-labeled CV-N binding” value (cyanovirin N (CV-N)) was “bound by CV-N”.

In the case of nonamannoside [compound 6], the “BODIPY-labeled CVN fluorescence” value (cyanovirin-N (CVN)) is reported as “fluorescence was detected”, the “CVN fluorescence signal in dilution series microarray at low printed concentrations” value (cyanovirin-N (CVN); printed carbohydrate 0.008 mM to 2 mM (FIG. 8)) is reported as “showed discernable fluorescence at concentrations where the signals of the other structures were unobservable” and the “BODIPY-labeled CV-N binding” value (cyanovirin N (CV-N)) is reported as “bound by CV-N”. The Kd (CVN) was 270 nM.

With O=C[C@H](O)[C@@H](O)[C@@H](O)[C@H](O)CO [compound 2, galactose] the “FITC-labeled ConA fluorescence on immobilized saccharide spots” value (Concanavalin A (ConA) [1]) was “no fluorescence”, the “BODIPY-labeled CVN fluorescence” value (cyanovirin-N (CVN)) was “no binding activity” and the “fluorescence of beads in dilution series of labeled ConA” value (Concanavalin A (ConA) [2]; labeled ConA 0 to 400 μg mL^−1, very high lectin concentrations (FIG. 18)) was “no increase in fluorescence”. For the same molecule, the “labeled ConA binding to saccharide-bearing beads (rhodamine fluorescence)” value (Concanavalin A (ConA) [2]; labeled ConA 50 μg mL^−1, five minutes) was “no ConA was observed”.

For branched trimannoside [compound 4], the “BODIPY-labeled CVN fluorescence” value (cyanovirin-N (CVN)) was “no binding activity”.

B1: CVN: HIV-inactivating 11 kDa protein from Nostoc ellipsosporum that binds high-mannose oligosaccharides of gp120 (protein, UniProt P81180 1-101, looked up)
Cyanovirin-N: T1 sequence (P81180 1-101)
In the case of B1, the “inactivation of HIV strains” value (HIV strains) is listed as “irreversibly inactivate a wide variety of HIV strains” and the “toxicity to host cells” value (host cells) is listed as “minimal toxicity to host cells”.
